Results from PubChem BioAssay (NCI).
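Dose response: 5 concentrations. Exposure: 48 h. Format: 96-well plates. Endpoint: linear interpolation; highest concentration if not reached. GI50 is the concentration that inhibits growth by half. At the TGI there is no net growth.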

Columns and labels:
Experiment in all cases: DTP human tumour cell line panel, 48 h
786-0 renal = tested on: 786-0 renal
A498 renal = tested on: A498 renal
A549 NSCLC = tested on: A549 NSCLC
ACHN renal = tested on: ACHN renal
BT-549 breast = tested on: BT-549 breast
CAKI-1 renal = tested on: CAKI-1 renal
CCRF-CEM leukemia = tested on: CCRF-CEM leukemia
COLO 205 colon = tested on: COLO 205 colon
DU-145 prostate = tested on: DU-145 prostate
EKVX NSCLC = tested on: EKVX NSCLC
HCC-2998 colon = tested on: HCC-2998 colon
HCT-116 colon = tested on: HCT-116 colon
HCT-15 colon = tested on: HCT-15 colon
HL-60(TB) leukemia = tested on: HL-60(TB) leukemia
HOP-62 NSCLC = tested on: HOP-62 NSCLC
HOP-92 NSCLC = tested on: HOP-92 NSCLC
HS 578T breast = tested on: HS 578T breast
HT29 colon = tested on: HT29 colon
IGROV1 ovarian = tested on: IGROV1 ovarian
K-562 leukemia = tested on: K-562 leukemia
KM12 colon = tested on: KM12 colon
LOX IMVI melanoma = tested on: LOX IMVI melanoma
M14 melanoma = tested on: M14 melanoma
MALME-3M melanoma = tested on: MALME-3M melanoma
MCF7 breast = tested on: MCF7 breast
MDA-MB-231 breast = tested on: MDA-MB-231 breast
MDA-MB-435 = tested on: MDA-MB-435
MOLT-4 leukemia = tested on: MOLT-4 leukemia
NCI-H226 lung = tested on: NCI-H226 lung
NCI-H23 lung = tested on: NCI-H23 lung
NCI-H460 lung = tested on: NCI-H460 lung
NCI-H522 lung = tested on: NCI-H522 lung
NCI/ADR-RES ovarian = tested on: NCI/ADR-RES ovarian
OVCAR-3 ovarian = tested on: OVCAR-3 ovarian
OVCAR-4 ovarian = tested on: OVCAR-4 ovarian
OVCAR-5 ovarian = tested on: OVCAR-5 ovarian
OVCAR-8 ovarian = tested on: OVCAR-8 ovarian
PC-3 prostate = tested on: PC-3 prostate
RPMI-8226 leukemia = tested on: RPMI-8226 leukemia
RXF 393 renal = tested on: RXF 393 renal
SF-268 CNS = tested on: SF-268 CNS
SF-295 CNS = tested on: SF-295 CNS
SF-539 CNS = tested on: SF-539 CNS
SK-MEL-2 melanoma = tested on: SK-MEL-2 melanoma
SK-MEL-28 melanoma = tested on: SK-MEL-28 melanoma
SK-MEL-5 melanoma = tested on: SK-MEL-5 melanoma
SK-OV-3 ovarian = tested on: SK-OV-3 ovarian
SN12C renal = tested on: SN12C renal
SNB-19 CNS = tested on: SNB-19 CNS
SNB-75 CNS = tested on: SNB-75 CNS
SR leukemia = tested on: SR leukemia
SW-620 colon = tested on: SW-620 colon
T-47D breast = tested on: T-47D breast
TK-10 renal = tested on: TK-10 renal
U251 CNS = tested on: U251 CNS
UACC-257 melanoma = tested on: UACC-257 melanoma
UACC-62 melanoma = tested on: UACC-62 melanoma
UO-31 renal = tested on: UO-31 renal

CN1CCN(c2ccc(Nc3nc(NCCNS(=O)(=O)c4ccc5ccccc5c4)c4sccc4n3)cc2)CC1
GI50 (786-0 renal): 2.69 µM | TGI (786-0 renal): 8.16 µM | GI50 (A498 renal): 19.2 µM | TGI (A498 renal): 34 µM | GI50 (A549 NSCLC): 9.03 µM | TGI (A549 NSCLC): 26.8 µM | GI50 (ACHN renal): 8.51 µM | TGI (ACHN renal): 20.7 µM | GI50 (BT-549 breast): 12.4 µM | TGI (BT-549 breast): 24.9 µM | GI50 (CAKI-1 renal): 3.87 µM | TGI (CAKI-1 renal): 15.2 µM | GI50 (CCRF-CEM leukemia): 3.52 µM | TGI (CCRF-CEM leukemia): 13.9 µM | GI50 (COLO 205 colon): 2.22 µM | TGI (COLO 205 colon): 4.99 µM | GI50 (DU-145 prostate): 12 µM | TGI (DU-145 prostate): 25 µM | GI50 (EKVX NSCLC): 13 µM | TGI (EKVX NSCLC): 26.3 µM | GI50 (HCC-2998 colon): 3.34 µM | TGI (HCC-2998 colon): 12.5 µM | GI50 (HCT-116 colon): 2.21 µM | TGI (HCT-116 colon): 5.64 µM | GI50 (HCT-15 colon): 2.31 µM | TGI (HCT-15 colon): 5.59 µM | GI50 (HL-60(TB) leukemia): 1.99 µM | TGI (HL-60(TB) leukemia): 4.04 µM | GI50 (HOP-62 NSCLC): 15 µM | TGI (HOP-62 NSCLC): 29.2 µM | GI50 (HOP-92 NSCLC): 3.31 µM | TGI (HOP-92 NSCLC): 16.1 µM | GI50 (HS 578T breast): 14.1 µM | TGI (HS 578T breast): 46.8 µM | GI50 (HT29 colon): 3.31 µM | TGI (HT29 colon): 12.3 µM | GI50 (IGROV1 ovarian): 11 µM | TGI (IGROV1 ovarian): 23.4 µM | GI50 (K-562 leukemia): 2.27 µM | TGI (K-562 leukemia): 7.15 µM | GI50 (KM12 colon): 16.2 µM | TGI (KM12 colon): 35.7 µM | GI50 (LOX IMVI melanoma): 1.75 µM | TGI (LOX IMVI melanoma): 3.36 µM | GI50 (M14 melanoma): 1.88 µM | TGI (M14 melanoma): 3.4 µM | GI50 (MALME-3M melanoma): 1.8 µM | TGI (MALME-3M melanoma): 3.28 µM | GI50 (MCF7 breast): 4.04 µM | TGI (MCF7 breast): 15.7 µM | GI50 (MDA-MB-231 breast): 3.87 µM | TGI (MDA-MB-231 breast): 14.8 µM | GI50 (MDA-MB-435): 3.34 µM | TGI (MDA-MB-435): 11.8 µM | GI50 (MOLT-4 leukemia): 4.55 µM | TGI (MOLT-4 leukemia): 24.1 µM | GI50 (NCI-H226 lung): 14.2 µM | TGI (NCI-H226 lung): 28.3 µM | GI50 (NCI-H23 lung): 13.3 µM | TGI (NCI-H23 lung): 26.9 µM | GI50 (NCI-H460 lung): 12.1 µM | TGI (NCI-H460 lung): 27.2 µM | GI50 (NCI-H522 lung): 7.16 µM | TGI (NCI-H522 lung): 21.6 µM | GI50 (NCI/ADR-RES ovarian): 14.8 µM | TGI (NCI/ADR-RES ovarian): 38.3 µM | GI50 (OVCAR-3 ovarian): 10.7 µM | TGI (OVCAR-3 ovarian): 28.1 µM | GI50 (OVCAR-4 ovarian): 10.3 µM | TGI (OVCAR-4 ovarian): 28.2 µM | GI50 (OVCAR-5 ovarian): 11.5 µM | TGI (OVCAR-5 ovarian): 23.7 µM | GI50 (OVCAR-8 ovarian): 6.65 µM | TGI (OVCAR-8 ovarian): 19.9 µM | GI50 (PC-3 prostate): 11.4 µM | TGI (PC-3 prostate): 31.1 µM | GI50 (RPMI-8226 leukemia): 2.46 µM | TGI (RPMI-8226 leukemia): 6.18 µM | GI50 (RXF 393 renal): 2.33 µM | TGI (RXF 393 renal): 6.58 µM | GI50 (SF-268 CNS): 11.5 µM | TGI (SF-268 CNS): 30.2 µM | GI50 (SF-295 CNS): 11.8 µM | TGI (SF-295 CNS): 24.1 µM | GI50 (SF-539 CNS): 1.91 µM | TGI (SF-539 CNS): 4.05 µM | GI50 (SK-MEL-2 melanoma): 19.6 µM | TGI (SK-MEL-2 melanoma): 36.1 µM | GI50 (SK-MEL-28 melanoma): 2.21 µM | TGI (SK-MEL-28 melanoma): 5 µM | GI50 (SK-MEL-5 melanoma): 3.27 µM | TGI (SK-MEL-5 melanoma): 11.3 µM | GI50 (SK-OV-3 ovarian): 19.4 µM | TGI (SK-OV-3 ovarian): 35.6 µM | GI50 (SN12C renal): 13.1 µM | TGI (SN12C renal): 26.3 µM | GI50 (SNB-19 CNS): 16.3 µM | TGI (SNB-19 CNS): 30 µM | GI50 (SNB-75 CNS): 11.6 µM | TGI (SNB-75 CNS): 24.2 µM | GI50 (SR leukemia): 2.57 µM | TGI (SR leukemia): 7.42 µM | GI50 (SW-620 colon): 6.41 µM | TGI (SW-620 colon): 21.8 µM | GI50 (T-47D breast): 3.71 µM | TGI (T-47D breast): 16.9 µM | GI50 (TK-10 renal): 21.5 µM | TGI (TK-10 renal): 37.3 µM | GI50 (U251 CNS): 3.21 µM | TGI (U251 CNS): 12 µM | GI50 (UACC-257 melanoma): 1.84 µM | TGI (UACC-257 melanoma): 3.56 µM | GI50 (UACC-62 melanoma): 11.7 µM | TGI (UACC-62 melanoma): 24 µM | GI50 (UO-31 renal): 12.4 µM | TGI (UO-31 renal): 25.5 µM
